Laboratory results as given in patent US11001802B2, “Surface of a vessel with polystyrene, nitrogen, oxygen and a static sessile contact angle for attachment and cultivation of cells” (Nunc A/S, priority 2008, dated 2021).

Columns and labels:
HEK293 cells [1] = experiment: HEK293 cell attachment, number of viable cells by LDH activity (Example 19); format: cell-based, human; conditions: Surface 4 and CellBIND surface, 2.0 and 5.0 μM
Text: Human embryonic kidney cells 293 (HEK293, ECACC no. 85120602) were maintained in Eagle's Minimum Essential Medium (EMEM; Lonza, Verviers, Belgium) containing 10% fetal bovine serum (FBS; Lonza). The cells were adapted to Pro293a-CDM medium (Lonza), a chemically defined, serum-free medium optimized for cultivation of adherent HEK293, by gradually and over several passages using the sequential ratios of 3:1, 1:1, 1:3, 1:7, and finally 0:1 of serum-supplemented EMEM and Pro293a-CDM medium. For maintenance and adaptation, HEK293 cells were seeded at 2.0×10^4 cells/cm^2 in 75-cm^2 flasks with Nunclon Delta™ surface (Thermo Fisher Scientific, Roskilde, Denmark) and passaged at 70-80%/confluence using Trypsin/EDTA for dissociation.
Another 100 μl of Pro293a-CDM medium with HEK293 cells was added to the wells (4.0×10^4 cells/cm^2). […]
The number of viable cells in the wells was then determined using a lactate dehydrogenase (LDH) activity kit from Roche, Switzerland. […] The reaction was stopped by adding 50 μl of 1.0 M HCl, and the absorbance at 490 nm was measured in a microplate reader (Genios Pro; Tecan, Austria). The number of cells was calculated using the A490 values from these samples and from standards containing LDH from a known number of cells. […]

H9 human ES cells = experiment: H9 human ES cell attachment to surface Nunc4 in defined media mTeSR (Example 14); format: cell-based; conditions: 20 micromolar Y-27632
Method: Passage 49 H9 human ES cells were passaged twice in the define media, mTeSR™, on Matrigel™-treated plasticware. The cells were then LIBERASE treated and plated onto the surface modified plate Nunc4 in mTeSR™ media. Cells were either plated in media with or without 20 micromolar Y-27632. Wells were also treated with various proteins for 30 minutes prior to seeding cells (no treatment, 0.1% gelatin, 2% BSA, 0.34 mg/ml rat Collagen I, 1:1000 Matrigel™, or 1:5000 Matrigel™) to determine if these proteins could promote human ES cell adhesion in defined media with or without Y-27632 (FIG. 28). […] However, when 20 micromolar Y-27632 was added to define mTeSR™ media, human ES cells adhered to surface Nunc4. Furthermore, this adherence was equivalent in untreated wells and wells treated with 0.1% gelatin, 2% BSA, and 0.34 mg/ml rat Collagen I. There was a modest increase in human ES cell attachment in wells with low concentrations of Matrigel™ (1:1000 and 1:5000 dilutions), however these concentrations of Matrigel™ were insufficient to promote adhesion in the absence of Y-27632.

HEK293 cells [2] = experiment: HEK293 attachment and growth, culture confluence by IncuCyte Plus (Examples 20, 21); format: cell-based, human
Method: HEK293 cells were maintained in EMEM (Lonza) containing 10% FBS (Lonza). Cells were passaged at 70-80% confluence using Trypsin/EDTA for dissociation, and seeded at c 2.0×10^4 cells/cm^2 in 75-cm^2 flasks with Nunclon Delta™ surface (Thermo Fisher Scientific, Roskilde, Denmark).
EMEM (500 μl) supplemented with 10% FBS containing 1.0, 5.0, 10, 15 or 20 μM Y-27632 (Sigma Chemical Co.), or 0.4, 1.2, 1.6, 2.4 or 2.8 μM H-1152 (Calbiochem, EMD Chemicals Inc., Darmstadt, Germany) was dispensed in Multidish 24-well plates with either Surface 4 or a non-treated (but gamma irradiated; 25 kGy) polystyrene surface. Another 500 μl of EMEM supplemented with 10% FBS and containing HEK293 cells were added to the wells (2.0×10^4 cells/cm^2). The cultures were placed in an IncuCyte™ Plus (Essen Instruments, Michigan, USA) and incubated at 37° C. in a humidified atmosphere of 5% CO2 in air. The IncuCyte™ Plus is an automated imaging platform, configured to fit inside a CO2 incubator, and designed to provide kinetic, non-invasive live cell imaging by acquiring phase contrast images of the cells at user-defined times and locations within the cultures. The primary metric of the instrument is culture confluence, that is, the fraction of the surface that is covered by cells. The HEK293 cells were incubated for 72 hours without manipulations, and images were collected every two hours at 9 positions in triplicate cultures. Culture confluence was determined using the IncuCyte™ Plus software (v. 3.4.1.25966).
EMEM (1.0 ml) supplemented with 10% FBS containing 0.4, 0.8, 1.2, 1.6, 2.0, 2.4 or 2.8 μM H-1152 was dispensed in Multidish 12-well plates with Surface 4. Another 1.0 ml of EMEM supplemented with […] and containing HEK293 cells were added to the wells (4.0×10^4 cells/cm^2). The cultures were placed in an IncuCyte™ Plus, and incubated at 37° C. in a humidified atmosphere of 5% CO2 in air for 42 hours (images were collected every 6 hours). One ml of culture medium was then removed by pipetting, and 1.0 ml EMEM supplemented with 10% FBS containing 0.2, 0.4, 0.6, 0.8, 1.0, 1.2 and 1.4 μM H-1152 was added. The cultures were placed in the IncuCyte™ Plus again, and images were collected every hour over the following 25 hours. Images were collected at 9 positions in triplicate cultures, and culture confluence was determined using the IncuCyte™ Plus software. Images from the IncuCyte™ Plus collected at specific positions in HEK293 cell cultures grown in the absence or presence of H-1152 (0.6 μM) was retrieved and presented as phase-contrast micrographs for the comparison of HEK293 culture morphology at the following time points: start of incubation (0 hours), just before medium change (42 hours), 1 hour after the medium change (43 hours), and, finally, after 52 hours of incubation.

For C[C@@H](N)[C@H]1CC[C@H](C(=O)Nc2ccncc2)CC1 [Surface Y-27632, Y-27632], the “attachment of HEK293 cells” value (HEK293 cells [1]; EMEM with 10% FBS) was “enhanced attachment”, the “attachment of HEK293 cells” value (HEK293 cells [1]; Pro293a-CDM medium) was “enhanced attachment” and the “adherence of human ES cells in defined mTeSR media” value (H9 human ES cells) was “adhered”. For the same compound, the “attachment and growth of HEK293 cells” value (HEK293 cells [2]; Surface 4, increasing concentration) was “enhances attachment and growth” and the “growth and attachment of HEK293 cells” value (HEK293 cells [2]; non-treated polystyrene surface, 10 μM Y-27632, 0.6-1.2 μM H-1152) was “slightly enhanced”.
